# In PMC5218480 (PLoS ONE, 2017):
# Test system: MV-4-11 cells
# Test: Gene expression microarray analysis (Affymetrix PrimeView) and GSEA
# Assay type: cell-based, human
# Set-up: RFU PODN (11730768_x_at) / Fold change /veh PODN (11730768_x_at) / RFU LINC00158 (11744669_a_at) / Fold change /veh LINC00158 (11744669_a_at) / RFU DUSP10 (11751237_a_at) / Fold change /veh DUSP10 (11751237_a_at) / RFU ID3 (11757404_x_at) / Fold change /veh ID3 (11757404_x_at) / RFU PLEKHG5 (11737974_s_at) / Fold change /veh PLEKHG5 (11737974_s_at) / RFU LRRC4B (11730491_at) / Fold change /veh LRRC4B (11730491_at) / RFU GIMAP4 (11747438_a_at) / Fold change /veh GIMAP4 (11747438_a_at) / RFU KRT8 (11758183_x_at) / Fold change /veh KRT8 (11758183_x_at) / RFU CNN1 (11734310_a_at) / Fold change /veh CNN1 (11734310_a_at) / RFU VPS37D (11726825_at) / Fold change /veh VPS37D (11726825_at) / RFU C10orf10 (11716522_x_at) / Fold change /veh C10orf10 (11716522_x_at) / RFU KIR2DL2 /// KIR2DL4 /// KIR2DL5A /// KIR2DL5B /// KIR2DS1 /// KIR2DS2 /// KIR2DS3 /// KIR2DS4 /// KIR3DL3 /// KIR3DL3 /// KIR3DS1 (11738374_at) / Fold change /veh KIR2DL2 /// KIR2DL4 /// KIR2DL5A /// KIR2DL5B /// KIR2DS1 /// KIR2DS2 /// KIR2DS3 /// KIR2DS4 /// KIR3DL3 /// KIR3DL3 /// KIR3DS1 (11738374_at) / RFU C1QL1 (11718748_at) / Fold change /veh C1QL1 (11718748_at) / RFU TMPRSS4 (11747572_a_at) / Fold change /veh TMPRSS4 (11747572_a_at) / RFU HAMP (11756126_x_at) / Fold change /veh HAMP (11756126_x_at) / RFU RNFT2 (11725882_a_at) / Fold change /veh RNFT2 (11725882_a_at) / RFU NR4A2 (11747474_a_at) / Fold change /veh NR4A2 (11747474_a_at) / RFU ABCC12 (11746883_a_at) / Fold change /veh ABCC12 (11746883_a_at) / RFU TMEM136 (11760407_x_at) / Fold change /veh TMEM136 (11760407_x_at) / RFU CLDN22 /// WWC2 (11732394_at) / Fold change /veh CLDN22 /// WWC2 (11732394_at) / RFU HLA-DPB1 (11760878_x_at) / Fold change /veh HLA-DPB1 (11760878_x_at) / RFU SPINT1 (11716480_a_at) / Fold change /veh SPINT1 (11716480_a_at) / RFU GAP43 (11754022_s_at) / Fold change /veh GAP43 (11754022_s_at) / RFU A4GNT (11735810_at) / Fold change /veh A4GNT (11735810_at) / RFU PRB3 (11715151_x_at) / Fold change /veh PRB3 (11715151_x_at) / RFU TUBB4B (11761932_at) / Fold change /veh TUBB4B (11761932_at) / RFU CAPN14 (11732068_a_at) / Fold change /veh CAPN14 (11732068_a_at) / RFU TMCC2 (11721928_a_at) / Fold change /veh TMCC2 (11721928_a_at) / RFU IRGQ (11745062_a_at) / Fold change /veh IRGQ (11745062_a_at) / RFU FAM174B (11720279_a_at) / Fold change /veh FAM174B (11720279_a_at) / RFU TMPRSS4 (11748680_a_at) / Fold change /veh TMPRSS4 (11748680_a_at) / RFU FAM212B (11763350_a_at) / Fold change /veh FAM212B (11763350_a_at) / RFU PLEKHG5 (11743358_a_at) / Fold change /veh PLEKHG5 (11743358_a_at) / RFU ZSCAN30 (11745921_a_at) / Fold change /veh ZSCAN30 (11745921_a_at) / RFU CMKLR1 (11741424_a_at) / Fold change /veh CMKLR1 (11741424_a_at) / RFU LOC101060620 /// MAPK8IP1 (11723275_at) / Fold change /veh LOC101060620 /// MAPK8IP1 (11723275_at) / RFU SPTSSB (11747773_x_at) / Fold change /veh SPTSSB (11747773_x_at) / RFU PRSS12 (11739890_at) / Fold change /veh PRSS12 (11739890_at) / RFU BIN1 (11741810_x_at) / Fold change /veh BIN1 (11741810_x_at) / RFU WNT11 (11732464_a_at) / Fold change /veh WNT11 (11732464_a_at) / RFU C10orf10 (11716521_a_at) / Fold change /veh C10orf10 (11716521_a_at) / RFU C5orf56 (11738089_at) / Fold change /veh C5orf56 (11738089_at) / RFU CYB561 (11721691_x_at) / Fold change /veh CYB561 (11721691_x_at) / RFU ANKRD19P (11752326_a_at) / Fold change /veh ANKRD19P (11752326_a_at) / RFU OR2T12 /// OR2T33 /// OR2T8 (11738714_s_at) / Fold change /veh OR2T12 /// OR2T33 /// OR2T8 (11738714_s_at) / RFU VCAN (11748164_a_at) / Fold change /veh VCAN (11748164_a_at) / RFU JSRP1 (11732532_at) / Fold change /veh JSRP1 (11732532_at) / RFU KRTAP10-11 (11738290_x_at) / Fold change /veh KRTAP10-11 (11738290_x_at) / RFU MYO3A (11730013_a_at) / Fold change /veh MYO3A (11730013_a_at) / RFU EBF3 (11725865_a_at) / Fold change /veh EBF3 (11725865_a_at) / RFU CAMK2N1 (11719241_x_at) / Fold change /veh CAMK2N1 (11719241_x_at) / RFU C5orf56 (11738088_a_at) / Fold change /veh C5orf56 (11738088_a_at) / RFU OLFML3 (11715873_a_at) / Fold change /veh OLFML3 (11715873_a_at) / RFU LOC100653217 /// NTM (11731650_a_at) / Fold change /veh LOC100653217 /// NTM (11731650_a_at) / RFU MAPK11 (11762145_a_at) / Fold change /veh MAPK11 (11762145_a_at) / RFU FIZ1 (11724087_x_at) / Fold change /veh FIZ1 (11724087_x_at) / RFU OASL (11726364_x_at) / Fold change /veh OASL (11726364_x_at) / RFU SOX15 (11748057_x_at) / Fold change /veh SOX15 (11748057_x_at) / RFU CD79A (11719716_a_at) / Fold change /veh CD79A (11719716_a_at) / RFU HIST1H1D (11736915_at) / Fold change /veh HIST1H1D (11736915_at) / RFU CASKIN2 (11723855_a_at) / Fold change /veh CASKIN2 (11723855_a_at) / RFU LOC730098 (11760151_x_at) / Fold change /veh LOC730098 (11760151_x_at) / RFU OR4N2 (11742367_at) / Fold change /veh OR4N2 (11742367_at) / RFU PRRT2 (11749266_a_at) / Fold change /veh PRRT2 (11749266_a_at) / RFU SNX32 (11753110_a_at) / Fold change /veh SNX32 (11753110_a_at) / RFU CDHR5 (11726645_a_at) / Fold change /veh CDHR5 (11726645_a_at) / RFU RCAN1 (11760418_a_at) / Fold change /veh RCAN1 (11760418_a_at) / RFU FAM167A (11723789_a_at) / Fold change /veh FAM167A (11723789_a_at) / RFU FAM26E (11764081_at) / Fold change /veh FAM26E (11764081_at) / RFU ISYNA1 (11749810_s_at) / Fold change /veh ISYNA1 (11749810_s_at) / RFU ACY1 (11761880_at) / Fold change /veh ACY1 (11761880_at) / RFU 11764098_at / Fold change /veh 11764098_at / RFU SAMD14 (11745864_x_at) / Fold change /veh SAMD14 (11745864_x_at) / RFU NPB (11741838_a_at) / Fold change /veh NPB (11741838_a_at) / RFU TMPRSS6 (11731388_a_at) / Fold change /veh TMPRSS6 (11731388_a_at) / RFU KRTAP10-2 (11738614_at) / Fold change /veh KRTAP10-2 (11738614_at) / RFU ARHGAP8 /// PRR5-ARHGAP8 (11727945_x_at) / Fold change /veh ARHGAP8 /// PRR5-ARHGAP8 (11727945_x_at) / RFU KRTAP5-7 /// NADSYN1 (11734609_at) / Fold change /veh KRTAP5-7 /// NADSYN1 (11734609_at) / RFU RASL12 (11751679_a_at) / Fold change /veh RASL12 (11751679_a_at) / RFU CDKN2B (11736163_a_at) / Fold change /veh CDKN2B (11736163_a_at) / RFU PRF1 (11729649_at) / Fold change /veh PRF1 (11729649_at) / RFU, ZNF638 /// ZNF638-IT1 / Fold change vs veh, ZNF638 /// ZNF638-IT1 / RFU, PANK3 / Fold change vs veh, PANK3 / RFU, SH3YL1 / Fold change vs veh, SH3YL1 / RFU, ZEB2 / Fold change vs veh, ZEB2 / RFU, NRIP1 / Fold change vs veh, NRIP1 / RFU, PTTG1IP / Fold change vs veh, PTTG1IP / RFU, CAPN2 / Fold change vs veh, CAPN2 / RFU, MED14 / Fold change vs veh, MED14 / RFU, SNORA58 / Fold change vs veh, SNORA58 / RFU, C1orf63 / Fold change vs veh, C1orf63 / RFU, LRRFIP1 / Fold change vs veh, LRRFIP1 / RFU, NDUFAF7 / Fold change vs veh, NDUFAF7 / RFU, SLC12A2 / Fold change vs veh, SLC12A2 / RFU, IBTK / Fold change vs veh, IBTK / RFU, ESF1 / Fold change vs veh, ESF1 / Fold change vs veh, TMEM50B / RFU, TAOK1 / Fold change vs veh, TAOK1 / RFU, ACBD3 / Fold change vs veh, ACBD3 / RFU, TMA16 / Fold change vs veh, TMA16 / RFU, RWDD3 / Fold change vs veh, RWDD3 / RFU, BCAT1 / Fold change vs veh, BCAT1 / RFU, EDEM3 / Fold change vs veh, EDEM3 / RFU, TMEM33 / Fold change vs veh, TMEM33 / RFU, WDR75 / Fold change vs veh, WDR75 / RFU, AHCTF1 / Fold change vs veh, AHCTF1 / RFU, TFRC / Fold change vs veh, TFRC / RFU, ZDHHC17 / Fold change vs veh, ZDHHC17 / RFU, NOM1 / Fold change vs veh, NOM1 / RFU, ARL8B / Fold change vs veh, ARL8B / RFU, ZBTB11 / Fold change vs veh, ZBTB11 / RFU, TAMM41 / Fold change vs veh, TAMM41 / RFU, KIAA1704 /// LOC100996395 / Fold change vs veh, KIAA1704 /// LOC100996395 / RFU, ING1 / Fold change vs veh, ING1 / RFU, TRMT61B / Fold change vs veh, TRMT61B / RFU, FUBP3 / Fold change vs veh, FUBP3 / RFU, TP53 / Fold change vs veh, TP53 / RFU, TNKS2 / Fold change vs veh, TNKS2 / RFU, ZFP14 / Fold change vs veh, ZFP14 / RFU, ACTR2 / Fold change vs veh, ACTR2 / RFU, PPP3R1 / Fold change vs veh, PPP3R1 / RFU, PIK3R1 / Fold change vs veh, PIK3R1 / RFU, HNRNPA1 / Fold change vs veh, HNRNPA1 / RFU, RNF170 / Fold change vs veh, RNF170 / RFU, ZNF28 / Fold change vs veh, ZNF28 / RFU, RNGTT / Fold change vs veh, RNGTT / RFU, OGT / Fold change vs veh, OGT / RFU, BRD1 / Fold change vs veh, BRD1 / RFU, MARS / Fold change vs veh, MARS / RFU, ZNF655 / Fold change vs veh, ZNF655 / RFU, FAHD1 / Fold change vs veh, FAHD1 / RFU, BDP1 / Fold change vs veh, BDP1 / RFU, LRRCC1 / Fold change vs veh, LRRCC1 / RFU, ARID1A / Fold change vs veh, ARID1A / RFU, ZNF146 / Fold change vs veh, ZNF146 / RFU, ZNF330 / Fold change vs veh, ZNF330 / RFU, GPN3 / Fold change vs veh, GPN3 / RFU, C9orf123 / Fold change vs veh, C9orf123 / RFU, N4BP2L2 / Fold change vs veh, N4BP2L2 / RFU, ARFIP1 / Fold change vs veh, ARFIP1 / RFU, FAM179B / Fold change vs veh, FAM179B / RFU, BCL10 / Fold change vs veh, BCL10 / RFU, UHRF1BP1L / Fold change vs veh, UHRF1BP1L / RFU, BET1 / Fold change vs veh, BET1 / RFU, CNOT2 / Fold change vs veh, CNOT2 / RFU, ZNF268 / Fold change vs veh, ZNF268 / Fold change vs veh, ZNF507 / RFU, DGCR2 / Fold change vs veh, DGCR2 / RFU, WDSUB1 / Fold change vs veh, WDSUB1 / Fold change vs veh, HSP90B1 /// MIR3652 / RFU, ADSS / Fold change vs veh, ADSS / RFU, GK / Fold change vs veh, GK / RFU, ZNF148 / Fold change vs veh, ZNF148 / RFU, TAF9 / Fold change vs veh, TAF9 / RFU, SLC1A5 / Fold change vs veh, SLC1A5 / RFU, SLMO2 / Fold change vs veh, SLMO2 / RFU, ABCC4 / Fold change vs veh, ABCC4 / RFU, LOC101060439 /// RAP1B / Fold change vs veh, LOC101060439 /// RAP1B / RFU, RFX7 / Fold change vs veh, RFX7 / RFU, GTPBP10 / Fold change vs veh, GTPBP10 / RFU, CNEP1R1 / Fold change vs veh, CNEP1R1 / RFU, BIVM-ERCC5 /// ERCC5 / Fold change vs veh, BIVM-ERCC5 /// ERCC5 / RFU, ILF3 / Fold change vs veh, ILF3 / RFU 11762660_at / Fold change /veh 11762660_at / RFU VCAN (11757783_s_at) / Fold change /veh VCAN (11757783_s_at) / RFU DDX43 (11728927_at) / Fold change /veh DDX43 (11728927_at) / RFU KRT8 (11758188_x_at) / Fold change /veh KRT8 (11758188_x_at) / RFU NKD1 (11759106_at) / Fold change /veh NKD1 (11759106_at) / RFU SRD5A1 (11742802_a_at) / Fold change /veh SRD5A1 (11742802_a_at) / RFU TPSAB1 /// TPSB2 (11721975_s_at) / Fold change /veh TPSAB1 /// TPSB2 (11721975_s_at) / RFU GSTM3 (11746129_a_at) / Fold change /veh GSTM3 (11746129_a_at) / RFU IL23R (11737362_x_at) / Fold change /veh IL23R (11737362_x_at) / RFU TMEM51 (11727254_a_at) / Fold change /veh TMEM51 (11727254_a_at) / RFU PIWIL2 (11732686_x_at) / Fold change /veh PIWIL2 (11732686_x_at) / RFU ORM1 (11744905_x_at) / Fold change /veh ORM1 (11744905_x_at) / RFU CCDC152 (11743942_at) / Fold change /veh CCDC152 (11743942_at) / RFU ECM1 (11717891_a_at) / Fold change /veh ECM1 (11717891_a_at) / RFU IL23R (11748794_a_at) / Fold change /veh IL23R (11748794_a_at) / RFU TNFAIP8L3 (11732012_x_at) / Fold change /veh TNFAIP8L3 (11732012_x_at) / RFU MBOAT4 (11741988_at) / Fold change /veh MBOAT4 (11741988_at) / RFU 11764193_at / Fold change /veh 11764193_at / RFU TMEM53 (11763286_at) / Fold change /veh TMEM53 (11763286_at) / RFU MAGEB2 (11727129_at) / Fold change /veh MAGEB2 (11727129_at) / RFU TMEM200A (11744735_a_at) / Fold change /veh TMEM200A (11744735_a_at) / RFU CCDC152 (11751479_a_at) / Fold change /veh CCDC152 (11751479_a_at) / RFU FAM211A (11726209_a_at) / Fold change /veh FAM211A (11726209_a_at) / RFU RGS16 (11746705_a_at) / Fold change /veh RGS16 (11746705_a_at) / RFU VCAN (11755009_s_at) / Fold change /veh VCAN (11755009_s_at) / RFU RHOB (11743442_s_at) / Fold change /veh RHOB (11743442_s_at) / RFU RGS16 (11720943_a_at) / Fold change /veh RGS16 (11720943_a_at) / RFU RGS16 (11720944_at) / Fold change /veh RGS16 (11720944_at) / RFU, VPS4B / Fold change vs veh, VPS4B / RFU, CREB1 / Fold change vs veh, CREB1 / RFU, DNAJC13 / Fold change vs veh, DNAJC13 / RFU, GNAQ / Fold change vs veh, GNAQ / RFU, CDK5R1 / Fold change vs veh, CDK5R1 / RFU, ZRANB3 / Fold change vs veh, ZRANB3 / RFU, CUL4A / Fold change vs veh, CUL4A / RFU, CCNY / Fold change vs veh, CCNY / RFU, UFL1 / Fold change vs veh, UFL1 / RFU, COG3 / Fold change vs veh, COG3 / RFU, DIAPH2 / Fold change vs veh, DIAPH2 / RFU, SKA2 / Fold change vs veh, SKA2 / RFU, AFF3 / Fold change vs veh, AFF3 / RFU, LMF1 / Fold change vs veh, LMF1 / RFU, IPO11 / Fold change vs veh, IPO11 / RFU, DFFB / Fold change vs veh, DFFB / RFU, FOXP1 / Fold change vs veh, FOXP1 / RFU, CARD8 / Fold change vs veh, CARD8 / RFU, STRN3 / Fold change vs veh, STRN3 / RFU, ADK / Fold change vs veh, ADK / RFU, RASSF2 / Fold change vs veh, RASSF2 / RFU, WIPF1 / Fold change vs veh, WIPF1 / RFU, LARP1B / Fold change vs veh, LARP1B / RFU, RASA1 / Fold change vs veh, RASA1 / RFU, RB1 / Fold change vs veh, RB1 / RFU, PPFIA1 / Fold change vs veh, PPFIA1 / RFU, MAT2A / Fold change vs veh, MAT2A / RFU, CCT5 / Fold change vs veh, CCT5 / RFU, WDR92 / Fold change vs veh, WDR92 / RFU, CUX1 / Fold change vs veh, CUX1 / RFU, TTC7A / Fold change vs veh, TTC7A / RFU, TMEM135 / Fold change vs veh, TMEM135 / RFU, DEPTOR / Fold change vs veh, DEPTOR / RFU, CPM / Fold change vs veh, CPM / RFU, DNAJB6 / Fold change vs veh, DNAJB6 / RFU, CACNA2D3 / Fold change vs veh, CACNA2D3 / RFU, DTX4 / Fold change vs veh, DTX4 / RFU, TFCP2 / Fold change vs veh, TFCP2 / RFU, GMCL1 /// GMCL1P1 / Fold change vs veh, GMCL1 /// GMCL1P1 / RFU, AEBP2 / Fold change vs veh, AEBP2 / RFU, SNHG1 /// SNORD22 /// SNORD25 /// SNORD26 /// SNORD27 /// SNORD28 /// SNORD29 /// SNORD31 / Fold change vs veh, SNHG1 /// SNORD22 /// SNORD25 /// SNORD26 /// SNORD27 /// SNORD28 /// SNORD29 /// SNORD31 / Fold change (Aza/veh), C12orf56 (ProbeSet 11735607_a_at) / Fold change (ACY-1035/veh), C12orf56 (ProbeSet 11735607_a_at) / Fold change (Aza/veh), FGFR1OP (ProbeSet 11751329_s_at) / Fold change (ACY-1035/veh), FGFR1OP (ProbeSet 11751329_s_at) / Fold change (Aza/veh), VPS36 (ProbeSet 11739960_a_at) / Fold change (ACY-1035/veh), VPS36 (ProbeSet 11739960_a_at) / RFU SYPL1 (11715823_x_at) / Fold change /veh SYPL1 (11715823_x_at) / RFU IGFBP7 (11715501_s_at) / Fold change /veh IGFBP7 (11715501_s_at) / RFU REEP3 (11722064_at) / Fold change /veh REEP3 (11722064_at) / RFU IGLL1 (11728026_x_at) / Fold change /veh IGLL1 (11728026_x_at): dose or concentration left out as unconfirmed
# Details: MV-4-11 cells, 48 hours
compound,measurement,value
Nc1ccc(-c2cccs2)cc1NC(=O)c1ccc2c(c1)cc(C1CC1)n2CCN1CCOCC1 [ACY-1035],RFU TMEM51 (11727254_a_at),14.11 RFU
